Source: BindingDB's records for doi:10.1021/jm00081a005 (University of Wisconsin-Madison, 1992)

Assay: Compound was tested for binding affinity towards cytosolic aminopeptidase

Ki: > 600 µM
Structure (SMILES): CC(=O)[C@@H](N)CC(C)C
